Test results as given in US20060281711A1, “IL-12 modulatory compounds” (Synta Pharmaceuticals Corp., priority 2005, published 2006).

Key:
[1] = tested on: Adjuvant arthritis (AA) in female Lewis rats; experiment: Treatment of adjuvant arthritis in rats; assay type: in vivo, rat; conditions: orally once a day for 7 days (day 7-14)
Procedure: Adjuvant arthritis (AA) was induced in female Lewis rats by the intracutaneous injection (base of the tail) of 0.1 mL of a 10 mg/mL bacterial suspension made from ground, heat-killed Mycobacterium tuberculosis H37Ra suspended in incomplete Freund's adjuvant. Rats were given a test compound orally once a day for 7 days (day 7-14), starting day 7 after mycobacterium induction. The development of polyarthritis was monitored daily by macroscopic inspection and assignment of an arthritis index to each animal, during the critical period (days 10 to 25 post-immunization).
The intensity of polyarthritis was scored according to the following scheme: (a) Grade each paw from 0 to 3 based on erythema, swelling, and deformity of the joints: 0 for no erythema or swelling; 0.5 if swelling is detectable in at least one joint; 1 for mild swelling and erythema; 2 for swelling and erythema of both tarsus and carpus; and 3 for ankylosis and bony deformity. Maximum score for all 4 paws is thus 12. (b) Grade for other parts of the body: for each ear, 0.5 for redness and another 0.5 if knots are present; 1 for connective tissue swelling (saddle nose); and 1 for the presence of knots or kinks in the tail. The highest possible arthritic index is 16.
Experiments with the AA model were repeated four times. […] The arthritis score used in this model is a reflection of the inflammatory state of the structures monitored and the results therefore show the ability of the test compound to provide relief for this aspect of the pathology.

IL-12 = experiment: Human in vitro assay: inhibition of IL-12 production in stimulated human PBMC or THP-1 cells (ELISA); assay type: cell-based; conditions: read-out: IC50 Range (in vitro IC50 for IL-12)
Source text: The biological activities of a compound of the invention can be evaluated by a number of cell-based assays. One of such assays can be conducted using cells from human peripheral blood mononuclear cells (PBMC) or human monocytic cell line (THP-1). The cells are stimulated with a combination of human interferon-γ (IFNγ) and lipopolysaccharide or a combination of IFNγ and Staphylococcus aureus Cowan I in the presence of a test compound. The level of inhibition of IL-12 production can be measured by determining the amount of p70 by using a sandwich ELISA assay with anti-human IL-12 antibodies. IC50 of the test compound can then be determined. Specifically, PBMC or THP-1 cells are incubated with the test compound. Cell viability was assessed using the bioreduction of MTS [3-(4,5-dimethylthiazol-2-yl)-5-(3-carboxymethoxyphenyl)-2-(4-sulfophenyl)-2H-tetrazolium] (Promega, Madison, Wis.).
8. Reagents. Staphylococcus aureus Cowan I (SAC) was obtained from Calbiochem (La Jolla, Calif.), and lipopolysaccharide (LPS, Serratia marscencens) was obtained from Sigma (St. Louis, Mo.). Human and mouse recombinant IFNγ were purchased from Boehringer Mannheim (Mannheim, Germany) and Pharmingen (San Diego, Calif.), respectively.
9. Human In Vitro Assay. Human PBMC were isolated by centrifugation using Ficoll-Paque (Pharmacia Biotech, Uppsala, Sweden) and prepared in RPMI medium supplemented with 10% fetal calf serum (FCS), 100 U/mL penicillin, and 100 μg/mL streptomycin. PBMC were plated in wells of a 96-well plate at a concentration of 5×10^5 cells/well, and primed by adding IFNγ (30 U/mL) for 22 h and stimulated by adding LPS (1 μg/mL), or by adding IFNγ (100 U/mL) and then stimulated by adding SAC (0.01%). A test pyrimidine compound was dissolved in DMSO, and added to wells of the 96-well plate. The final DMSO concentration was adjusted to 0.25% in all cultures, including the compound-free control. Human THP-1 cells were plated in wells, primed by adding IFNγ (100 U/mL) for 22 h and stimulated by adding SAC (0.025%) in the presence of different concentrations of the pyrimidine compound. Cell-free supernatants were taken 18 h later for measurement of cytokines. Cell viability was assessed using the bioreduction of MTS. Cell survival was estimated by determining the ratio of the absorbance in compound-treated groups versus compound-free control.
10. The supernatant was assayed for the amount of […], IL-12p70, or IL-10 by using a sandwich ELISA with anti-human antibodies, i.e., a Human IL-12 p40 ELISA kit from R&D Systems (Berkeley, Calif.), and a Human IL-12 p70 or IL-10 ELISA kit from Endogen (Cambridge, Mass.). Assays were based on the manufacturer's instructions.
The biological activities of compounds of the invention were tested on human PBMC or THP-1 cells.

With Cc1ccc2c(c1)/C(=N/Nc1cc(N3CCOCC3)nc(OCCN3CCOCC3)n1)CC2 [Compound 3, N-(6-Methyl-indan-1-ylidene)-N′-[6-morpholin-4-yl-2-(2-morpholin-4-yl-ethoxy)-pyrimidin-4-yl]-hydrazine] the “percent reduction in arthritic score” value ([1]; 20 mg/kg dose) was 25% reduction and the IC50 (IL-12) was under 1000 nM.
Cc1cc(C)c2c(c1)/C(=N/Nc1cc(N3CCOCC3)nc(OCCN3CCOCC3)n1)CCC2 [Compound 17, N-(5,7-Dimethyl-3,4-dihydro-2H-naphthalen-1-ylidene)-N′-[6-morpholin-4-yl-2-(2-morpholin-4-yl-ethoxy)-pyrimidin-4-yl]-hydrazine] was tested, and the IC50 (IL-12) was under 1000 nM.
Work on c1ccc2c(c1)CC/C2=N\Nc1cc(N2CCOCC2)nc(OCCN2CCOCC2)n1 [Compound 4, N-(Indan-1-ylidene)-N′-[6-morpholin-4-yl-2-(2-morpholin-4-yl-ethoxy)-pyrimidin-4-yl]-hydrazine] yielded an IC50 (IL-12) of at least 1000 nM.
For c1ccc2c(c1)OCC/C2=N\Nc1cc(N2CCOCC2)nc(OCCN2CCOCC2)n1 [Compound 12, N-(Chroman-4-ylidene)-N′-[6-morpholin-4-yl-2-(2-morpholin-4-yl-ethoxy)-pyrimidin-4-yl]-hydrazine], the IC50 (IL-12) was at least 1000 nM.
With Cc1cccc2c1CC/C2=N\Nc1cc(N2CCOCC2)nc(OCCN2CCOCC2)n1 [Compound 7, N-(4-Methyl-indan-1-ylidene)-N′-[6-morpholin-4-yl-2-(2-morpholin-4-yl-ethoxy)-pyrimidin-4-yl]-hydrazine] the IC50 (IL-12) was at least 1000 nM.
For Cc1ccc2c(c1)/C(=N/Nc1cc(N3CCOCC3)nc(OCCN3CCOCC3)n1)CCO2 [Compound 2, N-(6-Methyl-chroman-4-ylidene)-N′-[6-morpholin-4-yl-2-(2-morpholin-4-yl-ethoxy)-pyrimidin-4-yl]-hydrazine], the “percent reduction in arthritic score” value ([1]; 20 mg/kg dose) was 21% reduction, the “percent reduction in arthritic score” value ([1]; 50 mg/kg dose) was 32% reduction and the IC50 (IL-12) was under 1000 nM.
With Oc1ccc2c(c1)CCC/C2=N\Nc1cc(N2CCOCC2)nc(OCCN2CCOCC2)n1 [Compound 16, N-(6-Hydroxy-3,4-dihydro-2H-naphthalen-1-ylidene)-N′-[6-morpholin-4-yl-2-(2-morpholin-4-yl-ethoxy)-pyrimidin-4-yl]-hydrazine] the IC50 (IL-12) was under 1000 nM.
Work on c1cc2c(o1)CCC/C2=N\Nc1cc(N2CCOCC2)nc(OCCN2CCOCC2)n1 [Compound 41, N-(6,7-Dihydro-5H-benzofuran-4-ylidene)-N′-[6-morpholin-4-yl-2-(morpholin-4-yl-ethoxy)-pyrimidin-4-yl]-hydrazine] yielded an IC50 (IL-12) of at least 1000 nM.
For COc1ccc2c(c1)/C(=N/Nc1cc(N3CCOCC3)nc(OCCN3CCOCC3)n1)CC2 [Compound 9, N-(6-Methoxy-indan-1-ylidene)-N′-[6-morpholin-4-yl-2-(2-morpholin-4-yl-ethoxy)-pyrimidin-4-yl]-hydrazine], the “percent reduction in arthritic score” value ([1]; 20 mg/kg dose) was 24% and the IC50 (IL-12) was under 1000 nM.
COc1ccc2c(c1)/C(=N/Nc1cc(N3CCOCC3)nc(OCCN3CCOCC3)n1)CCC2 [Compound 14, N-(7-Methoxy-3,4-dihydro-2H-naphthalen-1-ylidene)-N′-[6-morpholin-4-yl-2-(2-morpholin-4-yl-ethoxy)-pyrimidin-4-yl]-hydrazine] gave an IC50 (IL-12) of under 1000 nM.
In the case of c1ccc2c(c1)CCC/C2=N\Nc1cc(N2CCOCC2)nc(OCCN2CCOCC2)n1 [Compound 11, N-(3,4-Dihydro-2H-naphthalen-1-ylidene)-N′-[6-morpholin-4-yl-2-(2-morpholin-4-yl-ethoxy)-pyrimidin-4-yl]-hydrazine], the IC50 (IL-12) is reported as at least 1000 nM.
Clc1ccc2c(c1)/C(=N/Nc1cc(N3CCOCC3)nc(OCCN3CCOCC3)n1)CCS2 [Compound 37, N-(6-Chloro-thiochroman-4-ylidene)-N′-[6-morpholin-4-yl-2-(2-morpholin-4-yl-ethoxy)-pyrimidin-4-yl]-hydrazine] gave an IC50 (IL-12) of under 1000 nM.
